Values joined by “and” are separate entries in the source; they are usually repeats but may differ in a detail not shown here. Identical values can stand only once. “Also recorded” adds a separate entry of the source. Like-named read-outs stand apart in the source and are kept apart here.
Experiments:
sharks (species pooled) = test: Tonic immobility, total of delivery methods not including Micropipette assays; format: in vivo; conditions: species and delivery methods pooled
Procedure: (§1) One bioassay used to observe and measure flight response is the tonic immobility test. Tonic immobility is a state of paralysis that typically occurs when a shark is subject to inversion of its body along the longitudinal axis. This state is called “tonic,” and the shark can remain in this state for up to 15 minutes thereby allowing researchers to observe effects of chemical repellents. The “tonic” state of the shark is first established by releasing seawater in proximity to the “tonic” shark with the same delivery instrument and at the same distance as a “test” repellent compound will be released. Some controls are released with a high flow rate (30 mL/sec) in order to establish that sharks are not awakened by a jet of fluid over their noses. Once behavioral controls are established, a compound or composition that may have a repelling effect is delivered to the shark. If the compound or composition engenders a flight response, the shark will awaken from the tonic state and rapidly attempt to flee the delivered repellent. Using this tonic immobility bioassay researches can quantify the strength of a repellent effect.
Table 1, which summarizes the data in Tables 14 and 15, evidences the gustatory repellent characteristics of methylbutanals. In 35 of 36 assays (combining columns “Y” and “R” under the column labeled “Total (Not including Micropipette Assays)” to arrive at a 97% effectiveness rate), including assays on lemon, nurse, tiger and blacktip sharks, the gustatory repellent activity of 3-methylbutanal was established. In 81% of assays, tonic immobility was fully terminated. […] In only a single assay did a shark not respond to treatment with 3-methylbutanal.

[1] = system: Caribbean reef sharks and blacknose sharks; test: Cage Assay on free-swimming sharks; format: in vivo, C. perezii, C. acronotus; conditions: for Cage Y (repellent activity), trials of trials: 500 mL delivered at baited cage; for number of strikes at the baited cage / return of sharks / interactions with the baited cage after 10 minutes: 500 mL of 50% w/w in diethylene glycol monoethyl ether
Excerpt: Another bioassay used to observe a flight response in sharks is a free-swimming test using a small metal cage containing bait. This assay is referred to as a “Cage Assay.” The cage with bait is suspended below a float in the water column. A ⅜ inch diptube is secured from the cage to the boat and carried chemical compounds to the proximity of the cage where the test substances were delivered. Sharks are drawn to the vicinity of the boat with chum. Sharks are observed to immediately bump and bite at the cage wherein bait was contained. The number of interactions between the sharks and the cage are recorded over time. Test chemical repelling substance is delivered to the vicinity of the cage through the diptube. The frequency of bumps and strikes by sharks against the cage is then monitored and recorded. If bumps and strikes by sharks cease for a period of time, that time period is also recorded. In the free-swim ring tests disclosed herein using a baited cage, the volume of test chemical repellent delivered into the vicinity of the cage was about 500 mL.
A series of chemical repellent tests on free-swimming Caribbean reef sharks (C. perezii) and blacknose sharks (C. acronotus) was performed in tropical waters. A small metal cage containing bait was suspended below a float in the water column. A ⅜″ ID HDPE diptube was secured from the cage to the boat, so that chemical compounds could be transported to the cage's proximity. Sharks were stimulated using bunker chum in bags.
The number of interactions was recorded using an underwater pole-camera.

[2] = system: sharks (lemon, nurse, blacknose, blacktip pooled); test: Tonic immobility, Syringe Assay, summary over species; format: in vivo
Procedure: as §1
(§2) A second delivery method called the “Syringe Assay” method delivered a dose of 60 mL or more of a test chemical repellent from at least one foot, and up to as many as five feet, from a shark. The distance of delivery was determined based on the strength of the water current in the direction of the shark. Time from delivery of the test substance until response was observed, measured and recorded. The “Syringe” method allows a researcher to observe how a diffusing and diluting cloud of test chemical repellent affects the shark's behavior when the shark encounters the delivered cloud of test substance. The “Syringe” method requires relatively large doses because of the diffusion of the cloud over time and distance. Time from delivery to response is related to the size of the bolus delivered from the syringe, distance of the shark from the syringe and water current.
(§3) In the Syringe assay about 60 mL or more of valeraldehyde was delivered from one to as many as five feet from the shark depending on the water current. […] Time from delivery to response was related to the size of the bolus delivered from the syringe, distance of the shark from the syringe and water current.

nurse sharks = test: Tonic immobility, Syringe Assay; format: in vivo, C. cirratum
lemon sharks [3] = test: Tonic immobility, Micropipette Assay; format: in vivo, N. brevirostris; conditions: for Comments (behavior observed): lemon / juvenile sharks, micropipette
Procedure: as §1
A fourth method of delivery was called the “Micropipette Assay” method of delivery. In this method, a very small dose (fraction of a mL) of a test substance was delivered directly into a shark's mouth. […] A response, such as a cough or other notable action of the shark, was usually noted when effective gustatory repellents were delivered directly into a shark's mouth while in tonic immobility.
The Micropipette Assay method has not proven to be a particularly effective method of assaying for a flight response in elasmobranchs. The Micropipette Assay method is, nevertheless, an excellent method for specifying that a gustatory response has occurred. It is effective for specifying a gustatory response because the micropipette delivery method allows direct delivery of an entire bolus of test substance into the mouth of the shark being tested.
Using a microliter syringe or microliter pipette, a bolus of test chemical can be directed precisely into one of the shark's nares, or its mouth. […] Olfactory repellents will terminate tonic immobility almost immediately when injected into a nare of the shark.
(§4) Lemon, nurse, blacktip and tiger sharks were placed in tonic immobility by inverting the shark's body along its longitudinal axis. […] The “tonic” state of each shark was first established by releasing a control of seawater in proximity to the shark with the same delivery instrument and at the same distance as the chemical repellent would later be delivered. In certain controls, sea water was released with a high flow rate (30 mL/sec) in order to establish that the sharks would not be awakened by a jet of fluid over their noses.
(§5) Once behavioral controls were established, the chemical repellent was delivered to the shark using the Hd Syringe Assay method, the Syringe 3/5/10 Assay method, the Bite Assay method or the Micropipette Assay method. […] If tonic immobility was terminated, the positive response was denoted as “Y.” If tonic immobility was not terminated but a behavior change within tonic immobility was noted, such as the opening of the mouth or a cough, the response was denoted as an “R” for reduced response. If no behavior change was observed, the negative response was denoted “N.”
Further because the Micropipette assays were often done serially on the same set of sharks, second and third doses of the repellent over time would be expected to evoke less of a reaction. Nevertheless, the small doses delivered to the shark in the Micropipette assay provide important data on whether a compound is a gustatory stimulant because the small dose may be delivered directly into the mouth of the shark. This eliminates any olfactory response that might be acting in concert with a gustatory response to terminate tonic immobility.

juvenile sharks = test: Initial tonic immobility assays, mouth delivery by micropipette or syringe; format: in vivo; conditions: introduced to the mouth using a micropipette or syringe
lemon sharks [4] = test: Tonic immobility, Syringe Assay; format: in vivo, N. brevirostris
Procedure: as §1, §2, §4, §5, §3

[5] = system: sharks (lemon, nurse, tiger pooled); test: Tonic immobility, Hd Syringe Assay, summary over species; format: in vivo; conditions: species pooled
Procedure: as §1
In Hd-Syringe Assays, the 3-methylbutanal was delivered to the shark's mouth and nares using a 3 mL hypodermic syringe fitted with a 22 gauge needle. The needle was held within 3 inches of the shark's mouth and the test repellent was slowly released from the syringe with a very fine plume in the water column. Any response was denoted. If a response occurred during a measurable time after delivery of the test chemical, the time between delivery and response was noted. If a response occurred immediately or the response occurred before a measurable time could be established, no time to response was noted.

O=Cc1ccc2c(c1)OCO2 [Piperonal, piperonal]
Total (Not including Micropipette assays / Effective Delivery Methods) Y, trials of trials (sharks (species pooled)): 1/1 | Cage Y (repellent activity), trials of trials [1]: 1/1 | number of strikes at the baited cage [1]: decrease in the number of strikes; also recorded: dramatically reduced | return of sharks / interactions with the baited cage after 10 minutes [1]: did not return; also recorded: interactions ceased

COc1ccc(C=O)cc1OC [veratraldehyde]
Syringe N (no response), trials of trials [2]: one of seven and 1/7 | Syringe Y (termination of tonic immobility), trials of trials [2]: six of seven and six of six and 6/7 | Syringe assays with no response (nurse sharks): no response | Micropipette assays with a response (lemon sharks [3]; lemon sharks): eight of twelve | Micropipette assays with no response (lemon sharks [3]; lemon sharks): four

CC(=O)/C=C/C1C(C)=CCCC1(C)C (stereo not drawn) [Ionone, alpha-ionone]
Cage Y (repellent activity), trials of trials [1]: 1/1 | number of strikes at the baited cage ([1]; listed as alpha-ionone): reduced | return of sharks / interactions with the baited cage after 10 minutes ([1]; listed as alpha-ionone): interactions continued after a 10 minute period | number of strikes at the baited cage ([1]; listed as ionone): decrease in the number of strikes | return of sharks / interactions with the baited cage after 10 minutes ([1]; listed as ionone): lull in feeding for 10 minutes

COc1cc(CCC(C)=O)ccc1O [Zingerone, zingerone]
Cage Y (repellent activity), trials of trials [1]: 1/1 | number of strikes at the baited cage [1]: decrease in the number of strikes; also recorded: reduced | return of sharks / interactions with the baited cage after 10 minutes [1]: lull in feeding for 10 minutes; also recorded: interactions continued after a 10 minute period

Cc1cccc(C)n1 [lutidine]
result of initial tonic immobility assays (juvenile sharks): terminated tonic immobility

Cc1ccccn1 [alpha-picoline, 2-methylpyridine]
result of initial tonic immobility assays (juvenile sharks): terminated tonic immobility

Cc1cc(=O)n(-c2ccccc2)n1C [antipyrine solution, antipyrine]
Micropipette assays with a response (lemon sharks [3]; lemon sharks): a response was observed; also recorded: evoked a response in one assay | Micropipette assays with no response (lemon sharks [3]; lemon sharks): no response; also recorded: did not evoke a response in another

CCCC=O [Butyraldehyde, butyraldehyde]
Syringe assays terminating tonic immobility (text) (lemon sharks [4]): resulting in termination of tonic immobility | Total (Not including Micropipette assays / Effective Delivery Methods) Y, trials of trials (sharks (species pooled)): 4/4 | Total Y, percent of trials (sharks (species pooled)): 100% | Syringe Y (termination of tonic immobility), trials of trials [2]: 4/4 | Syringe Y (termination of tonic immobility), trials of trials ([2]; listed as butyraldehyde): 4 of 5 | Syringe assays terminating tonic immobility (text) (nurse sharks): two | Syringe assays with no response (nurse sharks): one

Cc1cccnc1 [3-methylpyridine]
result of initial tonic immobility assays (juvenile sharks): terminated tonic immobility | Hd-Syringe Y (termination of tonic immobility), trials of trials [5]: three of three and 3/3

CCCCCCC=O [heptanal]
Syringe assays with no response (lemon sharks [4]): no response | Syringe N (no response), trials of trials [2]: no response and 1/1

Cc1cccnc1N [2-amino-3-picoline 95%, 2-amino-3-picoline]
Comments (behavior observed) (lemon sharks [3]): violent seizure; also recorded: VIOLENT/SEIZURE | Comments (behavior observed) (lemon sharks [3]; listed as aminopicoline): violent responses | Micropipette assays terminating tonic immobility (lemon sharks [3]; lemon sharks): one | Micropipette assays with a response (lemon sharks [3]; lemon sharks): two of two

CCCCCCCC=O [octanal]
Syringe assays terminating tonic immobility (text) (lemon sharks [4]): terminated | Syringe Y (termination of tonic immobility), trials of trials [2]: 1/1

Cc1cc(C)nc(C)c1 [collidine]
result of initial tonic immobility assays (juvenile sharks): terminated tonic immobility

Cc1ccc(C=O)cc1 [Tolualdehyde, p-tolualdehyde]
Syringe assays terminating tonic immobility (text) (lemon sharks [4]; listed as p-tolualdehyde): termination of tonic immobility | Syringe assays terminating tonic immobility (text) (lemon sharks [4]; listed as tolualdehyde): terminated | Syringe Y (termination of tonic immobility), trials of trials [2]: 1/1

Cc1ncccc1N [3-amino-2-picoline]
result of initial tonic immobility assays (juvenile sharks): terminated tonic immobility

Cc1ccncc1 [gamma-picoline, 4-methylpyridine]
result of initial tonic immobility assays (juvenile sharks): terminated tonic immobility

CCCCCCCCCC=O [decanal]
Syringe assays terminating tonic immobility (text) (lemon sharks [4]): terminated | Syringe Y (termination of tonic immobility), trials of trials [2]: 1/1 | Syringe assays terminating tonic immobility (text) (nurse sharks): terminated

CC(=O)C=C(C)C [mesityl oxide]
Syringe assays terminating tonic immobility (text) (lemon sharks [4]): terminated | Syringe Y (termination of tonic immobility), trials of trials [2]: 1/1

CCCCCCCCC=O [nonanal]
Syringe assays terminating tonic immobility (text) (lemon sharks [4]): terminated | Syringe Y (termination of tonic immobility), trials of trials [2]: 1/1

CC(C)c1ccc(C=O)cc1 [Cuminaldehyde, cuminaldehyde]
Syringe assays terminating tonic immobility (text) (lemon sharks [4]): resulted in termination of tonic immobility | Total (Not including Micropipette assays / Effective Delivery Methods) Y, trials of trials (sharks (species pooled)): 1/1 | Syringe Y (termination of tonic immobility), trials of trials [2]: 1/1 | Syringe Y (termination of tonic immobility), trials of trials ([2]; listed as cuminaldehyde): terminated

Reference: patent US9456589B2, “Elasmobranch-repelling compounds and methods of use” (priority 2005, dated 2016)
